The values that follow come from patent US20040023840A1, “Combination of organic compounds” (priority 2003, published 2004).

Molecules are shown by their SMILES. Where two headings read alike, the source gives them in different places.

For experiment [1], the system named is SHR with endothelial dysfunction. Kind of experiment: Survival of SHR with chronic NO synthase blockade (L-NAME), endothelial dysfunction model. In kind it is in vivo, rat. The note with it: for survival rate: SHR + L-NAME 12 weeks; for kidney lesions / proteinuria: low doses of valsartan and enalapril. The protocol: Male 20-24 week-old SHR, purchased from RCC Ldt (Fullingsdorf, Switzerland), are maintained in a temperature- and light-controlled room with free access to rat chow (Nafag 9331, Gossau, Switzerland) and tap water. The experiment is p rformed in accordance with the NIH guidelines and approved by the Canton Veterinary office (Bew 161, Kantonales V t rin{overscore (a)}ramt, Liestal, Switzerland). All rats are treated with the NO synthase inhibitor L-NAME (Sigma Chemicals) administered in drinking water (50 mg/l) for 12 weeks. The average daily dose of L-NAME calculated from the water consumed was 2.5 mg/kg/d (range 2.1-2.7).
(§1) The rats are divided into 5 groups: group 1, control (n=40); Group 2, valsartan (val5, 5 mg/kg/d; n=40); Group 3, enalapril (ena1, 1 mg/kg/d; n=30); Group 4, a combination (ena1val5) of enalapril (1 mg/kg/d) and valsartan (5 mg/kg/d); n=30) and Group 5, valsartan (val50, 50 mg/kg/d; n=30). The drugs are administered in drinking fluid. […] The pressor effect of Ang II at […] obtained in controls normotensive rats is reduced by 49% and 73% after treatment with valsartan 5 and 50 mg/kg/d, respectively (Gervais et al. 1999). The response to Ang I injected in Wistar Kyoto rats pretreated with enalapril 1 mg/kg/d or valsartan 5 mg/kg/d is similar.
Body weight is measured every week. Systolic blood pressure and heart rate are recorded by tail cuff plethysmography 3 and 2 weeks before starting the study and at 2 weeks after drug administration. Urine is collected over a 24 hour period from rats kept in individual (metabolic) cages the week before starting treatment and at weeks 4 and 12 for volume measurement and protein, creatinine, sodium and potassium determination using standard laboratory methods. At the same time points, blood samples are withdrawn from the retro-orbital plexus (maximum 1 ml) for creatinine, Na^+ and K^+ assays.
Ten rats from each group are sacrificed at 4 weeks for collection of kidney and heart for morphological analysis. The remaining rats are sacrificed at 12 weeks. Cardiac and kidney weight is recorded. Terminal blood sampling is performed in 5% EDTA at 4 (morphometry study) and 12 (end of the study) weeks for aldosterone, determination by radioimmunoassay using a DPC coat-a-count aldosterone-RIA kit (Bühlmann, Switzerland).
All data are expressed as mean±SEM. Statistical analysis is performed using a one-way ANOVA, followed by a Duncan's multiple range test and a Newman-Keuls test, 7 for comparison between the different groups. Results with a probability value of less than 0.05 are deemed statistically significant.

Experiment [2] has as its system response to Ang I. Nature of the experiment: Response to Ang I injected in pretreated Wistar Kyoto rats. The format is in vivo, rat. The note with it: Wistar Kyoto rats pretreated with enalapril 1 mg/kg/d or valsartan 5 mg/kg/d; the two compared. The protocol: as §1
Experiment [3] relates to pressor effect of Ang II. To be noted: Ang II at 1 mg/kg, normotensive rats, cited from earlier work.
[4] abbreviates: non-blood pressure reducing doses in drinking fluid: valsartan 5 mg/kg/d, enalapril 1 mg/kg/d, or both combined.

As to `CCCCC(=O)N(Cc1ccc(-c2ccccc2-c2nnn[nH]2)cc1)[C@H](C(=O)O)C(C)C` [valsartan], the survival rate in experiment [1] (high dose valsartan 50 mg/kg/d in drinking fluid) came out at 95%; in experiment [1] (setting [4]) it was 67%. The kidney lesions result in experiment [1] (SHR + L-NAME) is “no reduction”. For the same molecule, the proteinuria result in experiment [1] (SHR + L-NAME) is “no decrease”. Further, the systolic blood pressure entry in experiment [1] (SHR + L-NAME, valsartan 50 mg/kg, increase in blood pressure significantly attenuated) was “above 250 mmHg”. Also, the “response to Ang I” value in experiment [2] is recorded as “similar”. Further, the entries for the “reduction of pressor effect of Ang II” value in experiment [3] (valsartan 5 mg/kg/d (Gervais et al. 1999)) and in experiment [3] (valsartan 50 mg/kg/d (Gervais et al. 1999)) were 49% and 73%, respectively.

In the case of `CCOC(=O)[C@H](CCc1ccccc1)N[C@@H](C)C(=O)N1CCC[C@H]1C(=O)O` [enalapril], the survival rate in experiment [1] (setting [4]) is 55%. For the same molecule, in experiment [1] (SHR + L-NAME), the kidney lesions entry is recorded as “no reduction” and the proteinuria entry is on record as “no decrease”. The “response to Ang I” value in experiment [2] is on record as “similar”.
